Laboratory results taken from patent US11034650B2, “Compounds useful for treating a Mannheimia haemolytica or Histophilus somni infection” (Intervet Inc., priority 2016, dated 2021).
In brackets after ≈: the same amount, converted by molar mass. Each block holds one molecule with its values, some of them ahead of it.

Legend:
Assay type in all cases: cell-based
[1] = tested on: Mannheimia haemolytica MH 6357 (M7/2, reference strain, cattle infection strain); assay: MIC, broth-microdilution (CLSI VET01-A4), strain MH 6357; conditions: Mannheimia haemolytica strain MH 6357, broth-microdilution; unit assumed
Procedure: (§1) For example, representative compounds were tested against ***, Mannheimia haemolytica and Pasteurella multocida, using the conventional broth-dilution assay.
(§2) The Minimum inhibitory concentrations (MIC) of compounds according to the invention for a number of veterinary bacterial pathogens were determined by the broth-microdilution method according to CLSI document VET01-A4.
(§3) Microdilution trays containing a doubling dilution series of the test compound were used for the tests. The MIC results were interpreted according to the CLSI documents VET01-S3. The lowest concentration of compound at which no visible growth (i.e. no turbidity) detected by the unaided eye was recorded as the MIC.

[2] = tested on: Mannheimia haemolytica MH 6374 (ATCC 33396, reference strain); assay: MIC, broth-microdilution (CLSI VET01-A4), strain MH 6374; conditions: Mannheimia haemolytica strain MH 6374, broth-microdilution; unit assumed
Procedure: as §1, §2, §3

[3] = tested on: Pasteurella multocida PM 10775 (080130003051, BRD field isolate); assay: MIC, broth-microdilution (CLSI VET01-A4), strain PM 10775; conditions: Pasteurella multocida strain PM 10775, broth-microdilution; unit assumed
Procedure: as §1, §2, §3

[4] = tested on: Pasteurella multocida PM 12080 (IV102277-0093, BRD field isolate); assay: MIC, broth-microdilution (CLSI VET01-A4), strain PM 12080; conditions: Pasteurella multocida strain PM 12080, broth-microdilution; unit assumed
Procedure: as §1, §2, §3

[5] = tested on: Mannheimia haemolytica MH 10720 (154, BRD field isolate); assay: MIC, broth-microdilution (CLSI VET01-A4), strain MH 10720; conditions: Mannheimia haemolytica strain MH 10720, broth-microdilution; unit assumed
Procedure: as §1, §2, §3

[6] = tested on: Mannheimia haemolytica MH 13093 (XB0472-6014.1, BRD field isolate); assay: MIC, broth-microdilution (CLSI VET01-A4), strain MH 13093; conditions: Mannheimia haemolytica strain MH 13093, broth-microdilution; unit assumed
Procedure: as §1, §2, §3

[7] = tested on: Mannheimia haemolytica MH 12587 (1071, BRD field isolate, macrolide-resistance: erm+, E+); assay: MIC, broth-microdilution (CLSI VET01-A4), strain MH 12587; conditions: Mannheimia haemolytica strain MH 12587, broth-microdilution; unit assumed
Procedure: as §1, §2, §3

[8] = tested on: Pasteurella multocida PM 6267 (P 2225 (L386), reference strain, mouse infection strain); assay: MIC, broth-microdilution (CLSI VET01-A4), strain PM 6267; conditions: Pasteurella multocida strain PM 6267, broth-microdilution; unit assumed
Procedure: as §1, §2, §3

[9] = tested on: Mannheimia haemolytica MH 13065 (XB0446-6003.9, BRD field isolate); assay: MIC, broth-microdilution (CLSI VET01-A4), strain MH 13065; conditions: Mannheimia haemolytica strain MH 13065, broth-microdilution; unit assumed
Procedure: as §1, §2, §3

MIC PM 10775 [3]: ≤ 0.1 µg/mL
MIC PM 12080 [4]: 0.8 µg/mL (≈ 1.8 µM)
MIC PM 6267 [8]: ≤ 0.1 µg/mL
Structure (SMILES): O=C(N[C@@H](CO)C(=O)NO)c1ccc(C#Cc2ccc(CNCc3ccncc3)cc2)cc1 [Compound 90]
MIC MH 6357 [1]: 3.1 µg/mL (≈ 6.97 µM)
MIC MH 6374 [2]: 1.6 µg/mL (≈ 3.6 µM)
MIC MH 10720 [5]: 1.6 µg/mL (≈ 3.6 µM)
MIC MH 13093 [6]: 1.6 µg/mL (≈ 3.6 µM)
MIC MH 12587 [7]: 3.1 µg/mL (≈ 6.97 µM)
MIC MH 13065 [9]: 1.6 µg/mL (≈ 3.6 µM)

MIC PM 10775 [3]: ≤ 0.1 µg/mL
MIC PM 12080 [4]: 0.4 µg/mL (≈ 1.02 µM)
MIC PM 6267 [8]: 0.2 µg/mL (≈ 0.508 µM)
Structure (SMILES): O=C(N[C@@H](CO)C(=O)NO)c1ccc(C#Cc2ccc(CNC3CC3)cc2)cc1 [Compound 71]
MIC MH 6357 [1]: 1.6 µg/mL (≈ 4.07 µM)
MIC MH 6374 [2]: 0.8 µg/mL (≈ 2.03 µM)
MIC MH 10720 [5]: 0.4 µg/mL (≈ 1.02 µM)
MIC MH 13093 [6]: 3.1 µg/mL (≈ 7.88 µM)
MIC MH 12587 [7]: 1.6 µg/mL (≈ 4.07 µM)
MIC MH 13065 [9]: 0.8 µg/mL (≈ 2.03 µM)

MIC PM 10775 [3]: ≤ 0.1 µg/mL
MIC PM 12080 [4]: 0.8 µg/mL (≈ 1.8 µM)
MIC PM 6267 [8]: ≤ 0.1 µg/mL
Structure (SMILES): O=C(N[C@@H](CO)C(=O)NO)c1ccc(C#Cc2ccc(CNCc3ccccc3)cc2)cc1 [Compound 85]
MIC MH 6357 [1]: 3.1 µg/mL (≈ 6.99 µM)
MIC MH 6374 [2]: 0.8 µg/mL (≈ 1.8 µM)
MIC MH 10720 [5]: 1.6 µg/mL (≈ 3.61 µM)
MIC MH 13093 [6]: 3.1 µg/mL (≈ 6.99 µM)
MIC MH 12587 [7]: 3.1 µg/mL (≈ 6.99 µM)
MIC MH 13065 [9]: 1.6 µg/mL (≈ 3.61 µM)

MIC PM 10775 [3]: ≤ 0.1 µg/mL
MIC PM 12080 [4]: 0.8 µg/mL (≈ 1.89 µM)
MIC PM 6267 [8]: 0.2 µg/mL (≈ 0.472 µM)
Structure (SMILES): COCCNCc1ccc(C#Cc2ccc(C(=O)N[C@H](C(=O)NO)C(C)C)cc2)cc1 [Compound 96]
MIC MH 6357 [1]: 3.1 µg/mL (≈ 7.32 µM)
MIC MH 6374 [2]: 0.8 µg/mL (≈ 1.89 µM)
MIC MH 10720 [5]: 0.8 µg/mL (≈ 1.89 µM)
MIC MH 13093 [6]: 3.1 µg/mL (≈ 7.32 µM)
MIC MH 12587 [7]: 12.5 µg/mL (≈ 29.5 µM)
MIC MH 13065 [9]: 1.6 µg/mL (≈ 3.78 µM)

MIC PM 10775 [3]: ≤ 0.1 µg/mL
MIC PM 12080 [4]: 3.1 µg/mL (≈ 7.53 µM)
MIC PM 6267 [8]: 0.8 µg/mL (≈ 1.94 µM)
Structure (SMILES): COCCNCc1ccc(C#Cc2ccc(C(=O)N[C@@H](CO)C(=O)NO)cc2)cc1 [Compound 74]
MIC MH 6357 [1]: 3.1 µg/mL (≈ 7.53 µM)
MIC MH 6374 [2]: 3.1 µg/mL (≈ 7.53 µM)
MIC MH 10720 [5]: 3.1 µg/mL (≈ 7.53 µM)
MIC MH 13093 [6]: 12.5 µg/mL (≈ 30.4 µM)
MIC MH 12587 [7]: 12.5 µg/mL (≈ 30.4 µM)
MIC MH 13065 [9]: 6.3 µg/mL (≈ 15.3 µM)

Continued, molecule first:

Structure (SMILES): O=C(N[C@@H](CO)C(=O)NO)c1ccc(C#Cc2ccc(CNCc3ccc(Cl)cc3)cc2)cc1 [Compound 87]
MIC MH 6357 [1]: 3.1 µg/mL (≈ 6.49 µM)
MIC MH 6374 [2]: 0.8 µg/mL (≈ 1.67 µM)
MIC PM 10775 [3]: ≤ 0.1 µg/mL
MIC PM 12080 [4]: 1.6 µg/mL (≈ 3.35 µM)
MIC MH 10720 [5]: 1.6 µg/mL (≈ 3.35 µM)
MIC MH 13093 [6]: 3.1 µg/mL (≈ 6.49 µM)
MIC MH 12587 [7]: 6.3 µg/mL (≈ 13.2 µM)
MIC PM 6267 [8]: 0.2 µg/mL (≈ 0.418 µM)
MIC MH 13065 [9]: 3.1 µg/mL (≈ 6.49 µM)

Structure (SMILES): CC[C@H](C)[C@H](NC(=O)c1ccc(C#Cc2ccc(CNCC#N)cc2)cc1)C(=O)NO [Compound 192]
MIC MH 6357 [1]: 0.8 µg/mL (≈ 1.91 µM)
MIC MH 6374 [2]: 1.6 µg/mL (≈ 3.82 µM)
MIC PM 10775 [3]: ≤ 0.1 µg/mL
MIC PM 12080 [4]: ≤ 0.1 µg/mL
MIC MH 10720 [5]: 0.2 µg/mL (≈ 0.478 µM)
MIC MH 13093 [6]: 0.8 µg/mL (≈ 1.91 µM)
MIC MH 12587 [7]: 3.1 µg/mL (≈ 7.41 µM)
MIC PM 6267 [8]: ≤ 0.1 µg/mL
MIC MH 13065 [9]: 0.8 µg/mL (≈ 1.91 µM)

Structure (SMILES): CC(C)[C@H](NC(=O)c1ccc(C#Cc2ccc(CN(C)Cc3ccccc3)cc2)cc1)C(=O)NO [Compound 105]
MIC MH 6357 [1]: 6.3 µg/mL (≈ 13.4 µM)
MIC MH 6374 [2]: 3.1 µg/mL (≈ 6.6 µM)
MIC PM 10775 [3]: ≤ 0.1 µg/mL
MIC PM 12080 [4]: 0.8 µg/mL (≈ 1.7 µM)
MIC MH 10720 [5]: 0.8 µg/mL (≈ 1.7 µM)
MIC MH 13093 [6]: 3.1 µg/mL (≈ 6.6 µM)
MIC MH 12587 [7]: 6.3 µg/mL (≈ 13.4 µM)
MIC PM 6267 [8]: 0.2 µg/mL (≈ 0.426 µM)
MIC MH 13065 [9]: 3.1 µg/mL (≈ 6.6 µM)

Structure (SMILES): CC[C@H](C)[C@H](NC(=O)c1ccc(C#Cc2ccc(CNCCN(C)C)cc2)cc1)C(=O)NO [Compound 116]
MIC MH 6357 [1]: 25 µg/mL (≈ 55.5 µM)
MIC MH 6374 [2]: 25 µg/mL (≈ 55.5 µM)
MIC PM 10775 [3]: 0.4 µg/mL (≈ 0.888 µM)
MIC PM 12080 [4]: 3.1 µg/mL (≈ 6.88 µM)
MIC MH 10720 [5]: 3.1 µg/mL (≈ 6.88 µM)
MIC MH 13093 [6]: 25 µg/mL (≈ 55.5 µM)
MIC MH 12587 [7]: 1 µg/mL (≈ 2.22 µM)
MIC PM 6267 [8]: 0.8 µg/mL (≈ 1.78 µM)
MIC MH 13065 [9]: 25 µg/mL (≈ 55.5 µM)

Structure (SMILES): CC[C@H](C)[C@H](NC(=O)c1ccc(C#Cc2ccc(CN3CCOCC3)cc2)cc1)C(=O)NO [Compound 119]
MIC MH 6357 [1]: 1.6 µg/mL (≈ 3.56 µM)
MIC MH 6374 [2]: 1.6 µg/mL (≈ 3.56 µM)
MIC PM 10775 [3]: ≤ 0.1 µg/mL
MIC PM 12080 [4]: ≤ 0.1 µg/mL
MIC MH 10720 [5]: 0.4 µg/mL (≈ 0.89 µM)
MIC MH 13093 [6]: 3.1 µg/mL (≈ 6.9 µM)
MIC MH 12587 [7]: 3.1 µg/mL (≈ 6.9 µM)
MIC PM 6267 [8]: ≤ 0.1 µg/mL
MIC MH 13065 [9]: 1.6 µg/mL (≈ 3.56 µM)

Structure (SMILES): C=CCNCc1ccc(C#Cc2ccc(C(=O)N[C@H](C(=O)NO)C(C)C)cc2)cc1 [Compound 94]
MIC MH 6357 [1]: 12.5 µg/mL (≈ 30.8 µM)
MIC MH 6374 [2]: 0.8 µg/mL (≈ 1.97 µM)
MIC PM 10775 [3]: ≤ 0.1 µg/mL
MIC PM 12080 [4]: 0.8 µg/mL (≈ 1.97 µM)
MIC MH 10720 [5]: 0.8 µg/mL (≈ 1.97 µM)
MIC MH 13093 [6]: 1.6 µg/mL (≈ 3.95 µM)
MIC MH 12587 [7]: 1.6 µg/mL (≈ 3.95 µM)
MIC PM 6267 [8]: ≤ 0.1 µg/mL
MIC MH 13065 [9]: 0.8 µg/mL (≈ 1.97 µM)

Structure (SMILES): CC(C)[C@H](NC(=O)c1ccc(C#Cc2cccc(CNCc3ccncc3)c2)cc1)C(=O)NO [Compound 46]
MIC MH 6357 [1]: 6.3 µg/mL (≈ 13.8 µM)
MIC MH 6374 [2]: 6.3 µg/mL (≈ 13.8 µM)
MIC PM 10775 [3]: 0.2 µg/mL (≈ 0.438 µM)
MIC PM 12080 [4]: 6.3 µg/mL (≈ 13.8 µM)
MIC MH 10720 [5]: 1.6 µg/mL (≈ 3.5 µM)
MIC MH 13093 [6]: 6.3 µg/mL (≈ 13.8 µM)
MIC MH 12587 [7]: 12.5 µg/mL (≈ 27.4 µM)
MIC PM 6267 [8]: 1.6 µg/mL (≈ 3.5 µM)
MIC MH 13065 [9]: 6.3 µg/mL (≈ 13.8 µM)
